The text below walks through data of US7151105B2, “Inhibitors of Hepatitis C virus RNA-dependent RNA polymerase, and compositions and treatments using the same” (Agouron Pharmaceuticals, Inc., priority 2004, dated 2006).

T1 sequence (P26663 2420-3010): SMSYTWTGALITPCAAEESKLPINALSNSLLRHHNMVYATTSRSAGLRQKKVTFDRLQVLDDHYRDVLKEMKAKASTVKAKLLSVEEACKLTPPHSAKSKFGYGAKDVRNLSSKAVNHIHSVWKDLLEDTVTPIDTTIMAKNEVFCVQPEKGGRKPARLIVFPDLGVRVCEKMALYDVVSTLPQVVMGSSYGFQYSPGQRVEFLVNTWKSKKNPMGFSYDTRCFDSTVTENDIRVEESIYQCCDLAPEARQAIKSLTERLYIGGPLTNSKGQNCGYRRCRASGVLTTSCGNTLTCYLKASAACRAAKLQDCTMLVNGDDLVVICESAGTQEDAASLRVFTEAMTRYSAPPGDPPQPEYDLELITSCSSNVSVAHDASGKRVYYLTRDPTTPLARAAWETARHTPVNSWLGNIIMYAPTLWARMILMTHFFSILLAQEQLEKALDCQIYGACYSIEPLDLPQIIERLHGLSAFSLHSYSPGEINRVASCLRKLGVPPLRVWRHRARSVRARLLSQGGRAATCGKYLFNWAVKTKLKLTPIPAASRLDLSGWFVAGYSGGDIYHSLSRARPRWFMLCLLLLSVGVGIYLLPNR

The test has as its target T1, Recombinant HCV polymerase (Hepatitis C virus genotype 1b, UniProt P26663).
T1 construct: Recombinant HCV polymerase was tested for its ability to perform primer/template-directed transcription
Nature of the test: biochemical. The settings on record: inhibition of polymerase-directed transcription; 30 min at 30° C; 30 nM enzyme; cpm data in triplicate. As for the experimental part: The compounds described herein were tested for activity with HCV polymerase. Recombinant HCV polymerase was tested for its ability to perform primer/template-directed transcription in assays that contained 30 mM tris-HCl pH 7.2, 10 mM MgCl2, 20 mM NaCl, 1 mM Dithiothreitol (DTT), 0.05% Tween-20, 1% glycerol, 5 pmoles biotin-dG12 (primer), 0.5 pmoles poly(rC)300 (template), 1 μM GTP, 0.1–0.3 uCi α-^32P-GTP, and 2.5 pmoles (0.15 μg) HCV polymerase protein in a final volume of 75 μL. Reactions were initiated by addition of enzyme and incubated 30 minutes at 30° C. Reactions were stopped by addition of 33 mM EDTA, and polynucleotide products were collected by filtration through Diethylaminoethyl (DE) Filtermat papers (Wallac). Unincorporated triphosphate was removed by washing the filters with 5% dibasic sodium phosphate. The filters were counted in a Packard Tri-Lux Microbeta scintillation counter (Packard Bioscience, Meriden, Conn.). Compounds to be tested were added at various concentrations, e.g., 1 μm to 50 μm, from stocks in 10% DMSO-water (final DMSO is 1% in reaction).
IC50 values were estimated from the primary cpm data (collected in triplicate) using the formula: cpm (I)=cpm (no inhibitor)(1−([I]/([I]+IC50))). […] A percent inhibition value is expressed for a compound where it was impractical to calculate an IC50 value with available data.
With `Cc1nc(CC2=C(O)CC(CCc3ccc(C(C)(C)C#N)c(Cl)c3)(C3CCCC3)OC2=O)n(C)n1` (centres unmarked) [B(22), 2-[2-Chloro-4-(2-{2-cyclopentyl-5-[(1,3-dimethyl-1H-1,2,4-triazol-5-yl)methyl]-4-hydroxy-6-oxo-3,6-dihydro-2H-pyran-2-yl}ethyl)phenyl]-2-methylpropanenitrile], the IC50 amounted to 42 nM.

As to `CCc1ccc(=O)n(CCC2(C3CCCC3)CC(O)=C(Cc3nc4nc(C)cc(C)n4n3)C(=O)O2)c1` (centres unmarked) [B(31), 1-(2-{2-Cyclopentyl-5-[(5,7-dimethyl[1,2,4]triazolo[1,5-a]pyrimidin-2-yl)methyl]-4-hydroxy-6-oxo-3,6-dihydro-2H-pyran-2-yl}ethyl)-5-ethylpyridin-2(1H)-one], the IC50 was 180 nM.

Consider `CCc1cc(CCC2(C3CCCC3)CC(O)=C(Cc3nc4nc(C)cc(C)n4n3)C(=O)O2)c(OCC2CC2)cc1O` (centres unmarked) [A(32), 6-Cyclopentyl-6-{2-[2-(cyclopropylmethoxy)-5-ethyl-4-hydroxyphenyl]ethyl}-3-[(5,7-dimethyl[1,2,4]triazolo[1,5-a]pyrimidin-2-yl)methyl]-4-hydroxy-5,6-dihydro-2H-pyran-2-one], for which the IC50 was 5 nM.

For the compound `CCn1cc(CC2=C(O)CC(CCc3ccc(C(C)(C)C#N)c(F)c3)(C3CCCC3)OC2=O)c(C)n1` (centres unmarked) [A(95), 2-[4-(2-{2-Cyclopentyl-5-[(1-ethyl-3-methyl-1H-pyrazol-4-yl)methyl]-4-hydroxy-6-oxo-3,6-dihydro-2H-pyran-2-yl}ethyl)-2-fluorophenyl]-2-methylpropanenitrile], the half-inhibitory concentration (IC50) turned out to be 40 nM.

For the compound `CCc1cc(CCC2(C3CCCC3)CC(O)=C(Cc3nc4nc(C)cc(C)n4n3)C(=O)O2)ccc1NS(C)(=O)=O` (centres unmarked) [A(104), N-[4-(2-{2-cyclopentyl-5-[(5,7-dimethyl[1,2,4]triazolo[1,5-a]pyrimidin-2-yl)methyl]-4-hydroxy-6-oxo-3,6dihydro-2H-pyran-2-yl}ethyl)-2-ethylphenyl]methanesulfonamide], the IC50 came out at 6 nM.

Regarding `COc1cc(CO)c(F)cc1CCC1(C2CCCC2)CC(O)=C(Cc2nc3nc(C)cc(C)n3n2)C(=O)O1` (centres unmarked) [A(80), 6-Cyclopentyl-3-[(5,7-dimethyl[1,2,4]triazolo[1,5-a]pyrimidin-2-yl)methyl]-6-{2-[5-fluoro-4-(hydroxymethyl)-2-methoxyphenyl]ethyl}-4-hydroxy-5,6-dihydro-2H-pyran-2-one], the IC50 is 22 nM.

Consider `Cc1cc(C)n2nc(OC3C(=O)CC(CCc4ccc(C(C)(C)C#N)c(Cl)c4)(C4CCCC4)OC3=O)nc2n1` (centres unmarked) [B(27), 2-[2-Chloro-4-(2-{2-cyclopentyl-5-[(5,7-dimethyl[1,2,4]triazolo[1,5-a]pyrimidin-2-yl)oxy]-4,6-dioxotetrahydro-2H-pyran-2-yl}ethyl)phenyl]-2-methylpropanenitrile], for which the IC50 was 10000 nM.

As to `CCn1cc(CC2=C(O)CC(CCc3ccc(C(C)(C)C#N)c(Cl)c3)(C3CCCC3)OC2=O)cn1` (centres unmarked) [B(23), 2-[2-Chloro-4-(2-{2-cyclopentyl-5-[(1-ethyl-1H-pyrazol-4-yl)methyl]-4-hydroxy-6-oxo-3,6-dihydro-2H-pyran-2-yl}ethyl)phenyl]-2-methylpropanenitrile], the IC50 came out at 140 nM.

For the compound `Cc1cc(C)n2nc(CC3=C(O)CC(CCc4ccc(C(C)(C)O)c(Cl)c4)(C4CCCC4)OC3=O)nc2n1` (centres unmarked) [B(37), 6-{2-[3-Chloro-4-(1-hydroxy-1-methylethyl)phenyl]ethyl}-6-cyclopentyl-3[(5,7-dimethyl[1,2,4]triazolo[1,5-a]pyrimidin-2-yl)methyl]-4-hydroxy-5,6-dihydro-2H-pyran-2-one], the IC50 stood at 22 nM.

On to `CN(C)c1c(CC2=C(O)CC(CCc3ccc(C(C)(C)C#N)c(F)c3)(C3CCCC3)OC2=O)c(C(F)F)nn1C` (centres unmarked) [Example B(51), 2-{4-[2-(2-Cyclopentyl-5-{[3-(difluoromethyl)-5-(dimethylamino)-1-methyl-1H-pyrazol-4-yl]methyl}-4-hydroxy-6-oxo-3,6-dihydro-2H-pyran-2-yl)ethyl]-2-fluorophenyl}-2-methylpropanenitrile], for which the IC50 came out at 24 nM.

Turning to `Cc1cc(C)n2nc(CC3=C(O)CC(CCc4ccc(C5(C#N)CC5)cc4)(C4CCCC4)OC3=O)nc2n1` (centres unmarked) [A(93), 1-[4(2-{2-Cyclopentyl-5-[(5,7-dimethyl[1,2,4]triazolo[1,5-a]pyrimidin-2-yl)methyl]-4-hydroxy-6-oxo-3,6-dihydro-2H-pyran-2-yl}ethyl)phenyl]cyclopropanecarbonitrile], the IC50 turned out to be 6 nM.

As to `CCc1cc(CCC2(C3CCCC3)CC(O)=C(Cc3nc4ncc(C)cn4n3)C(=O)O2)cc(CC)n1` (centres unmarked) [A(36)], the IC50 stood at 30 nM.

`CCOc1cc(O)c(CC)cc1CCC1(C2CCCC2)CC(O)=C(Cc2nc3ncc(C)cn3n2)C(=O)O1` (single isomer, unassigned) [A(57), 6-Cyclopentyl-6-[2-(2-ethoxy-5-ethyl-4-hydroxyphenyl)ethyl]-4-hydroxy-3-[(6-methyl[1,2,4]triazolo[1,5-a]pyrimidin-2-yl)methyl]-5,6-dihydro-2H-pyran-2-one]: the IC50 was 3 nM.

As for `CCOc1cc(O)c(CC)cc1CCC1(C2CCCC2)CC(O)=C(Cc2nc3nc(C)cc(C)n3n2)C(=O)O1` (single isomer, unassigned) [A(31), 6-Cyclopentyl-3-[(5,7-dimethyl[1,2,4]triazolo[1,5-a]pyrimidin-2-yl)methyl]-6-[2-(2-ethoxy-5-ethyl-4-hydroxyphenyl)ethyl]-4-hydroxy-5,6-dihydro-2H-pyran-2-one], the IC50 was found to be 6 nM.

For `CCn1cc(CC2=C(O)CC(CCc3ccc(C(C)(C)C#N)c(F)c3)(C3CCCC3)OC2=O)cn1` (centres unmarked) [A(85), 2-[4-(2-{2-Cyclopentyl-5-[(1-ethyl-1H-pyrazol-4-yl)methyl]-4-hydroxy-6-oxo-3,6-dihydro-2H-pyran-2-yl}ethyl)-2-fluorophenyl]-2-methylpropanenitrile], the IC50 was determined as 83 nM.

For the compound `Cc1cc(C)n2nc(CC3=C(O)CC(CCc4cnc(C(C)(C)C#N)c(Cl)c4)(C4CCCC4)OC3=O)nc2n1` (racemic) [Example B(39), 2-[3-chloro-5-(2-{2-cyclopentyl-5-[(5,7-dimethyl[1,2,4]triazolo[1,5-a]pyrimidin-2-yl)methyl]-4-hydroxy-6-oxo-3,6-dihydro-2H-pyran-2-yl}ethyl)pyridin-2-yl]-2-methylpropanenitrile], the IC50 was 12 nM.

Take `CCOc1cnc(CC)cc1CCC1(C2CCCC2)CC(O)=C(Cc2nc3nc(C)cc(C)n3n2)C(=O)O1` (single isomer, unassigned) [A(52), 6-cyclopentyl-3-[(5,7-dimethyl[1,2,4]triazolo[1,5-a]pyrimidin-2-yl)methyl]-6-[2-(5-ethoxy-2-ethylpyridin-4-yl)ethyl]-4-hydroxy-5,6-dihydro-2H-pyran-2-one]: the IC50 came out at 3 nM.

On to `CCc1cc(CCC2(C3CCCC3)CC(=O)CC(=O)O2)ccc1OCCN(C)C(=O)OC(C)(C)C` (centres unmarked) [A(67), tert-Butyl 2-{4-[2-(2-cyclopentyl-4,6-dioxotetrahydro-2H-pyran-2-yl)ethyl]-2-ethylphenoxy}ethyl(methyl)carbamate], for which the IC50 amounted to 47000 nM.

With `CCc1cc(CCC2(C3CCCC3)CC(O)=C(Cc3nc4nc(C)cc(C)n4n3)C(=O)O2)ccc1CO` (single isomer, unassigned; enantiomer 1) [A(114), Enantiomer 1 of 6-cyclopentyl-3-[(5,7-dimethyl[1,2,4]triazolo[1,5-a]pyrimidin-2-yl)methyl]-6-{2-[3-ethyl-4-(hydroxymethyl)phenyl]ethyl}4-hydroxy-5,6dihydro-2H-pyran-2-one], the IC50 turned out to be 5 nM.

As for `CCc1cc(CCC2(C3CCCC3)CC(O)=C(Cc3nc4ncc(C)cn4n3)C(=O)O2)ccc1CC#N` (centres unmarked) [A(103), [4-(2-{2-cyclopentyl-4-hydroxy-5-[(6-methyl[1,2,4]triazolo[1,5-a]pyrimidin-2-yl)methyl]-6-oxo-3,6-dihydro-2H-pyran-2-yl}ethyl)-2-ethylphenyl]acetonitrile], the IC50 worked out at 3 nM.

For the compound `CCOc1cnc(CC)cc1CCC1(C2CCCC2)CC(O)=C(Cc2nc3nc(C)cc(C)n3n2)C(=O)O1` (single isomer, unassigned) [A(51), 6-Cyclopentyl-3-[(5,7-dimethyl[1,2,4]triazolo[1,5-a]pyrimidin-2-yl)methyl]-6-[2-(5-ethoxy-2-ethylpyridin-4-yl)ethyl]-4-hydroxy-5,6-dihydro-2H-pyran-2-one], the IC50 worked out at 3 nM.

Regarding `CCCOc1cc(O)c(CCC2(C3CCCC3)CC(O)=C(Cc3nc4nc(C)cc(C)n4n3)C(=O)O2)cc1CC` (centres unmarked) [A(49), 6-Cyclopentyl-3-[(5,7-dimethyl[1,2,4]triazolo[1,5-a]pyrimidin-2-yl)methyl]-6-[2-(5-ethyl-2-hydroxy-4-propoxyphenyl)ethyl]-4-hydroxy-5,6-dihydro-2H-pyran-2-one], the IC50 was 7 nM.

For `CCCOc1cnc(CC)cc1CCC1(C2CCCC2)CC(O)=C(Cc2nc3nc(C)cc(C)n3n2)C(=O)O1` (centres unmarked) [A(42), 6-Cyclopentyl-3-[(5,7-dimethyl[1,2,4]triazolo[1,5-a]pyrimidin-2-yl)methyl]-6-[2-(2-ethyl-5propoxypyridin-4-yl)ethyl]-4-hydroxy-5,6-dihydro-2H-pyran-2-one], the IC50 stood at 4 nM.

The term IC50 denotes the point on the concentration scale where inhibition reaches its midpoint.
